Assay results published in ChEMBL document CHEMBL4842347, “Structure-activity relationship and biochemical evaluation of novel fibroblast activation protein and prolyl endopeptidase inhibitors with α-ketoamide warheads” (Eur J Med Chem, 2021).
The source made the active and inactive calls. The rule behind the calls is not given here.

Key:
CCRF-CEM = assay: Cytotoxicity against human CCRF-CEM cells assessed as reduction in cell viability incubated for 72 hrs measured by […]-based colorimetric assay; format: functional
HepG2 = assay: Cytotoxicity against human HepG2 cells assessed as reduction in cell viability incubated for 72 hrs measured by […]-based colorimetric assay; format: functional
HeLa = assay: Cytotoxicity against human HeLa cells assessed as reduction in cell viability incubated for 72 hrs measured by […]-based colorimetric assay; format: functional
HL-60 = assay: Cytotoxicity against human HL-60 cells assessed as reduction in cell viability incubated for 72 hrs measured by […]-based colorimetric assay; format: functional
Dipeptidyl peptidase 4 = Dipeptidyl peptidase 4 (Homo sapiens, UniProt P27487); assay: Inhibition of SF-tagged DPP4 (unknown origin) expressed in Drosophila S2 cells using fluorogenic substrate by spectrometric analysis; format: cell-based
Chain of Dipeptidyl peptidase 4 (P27487 whole entry): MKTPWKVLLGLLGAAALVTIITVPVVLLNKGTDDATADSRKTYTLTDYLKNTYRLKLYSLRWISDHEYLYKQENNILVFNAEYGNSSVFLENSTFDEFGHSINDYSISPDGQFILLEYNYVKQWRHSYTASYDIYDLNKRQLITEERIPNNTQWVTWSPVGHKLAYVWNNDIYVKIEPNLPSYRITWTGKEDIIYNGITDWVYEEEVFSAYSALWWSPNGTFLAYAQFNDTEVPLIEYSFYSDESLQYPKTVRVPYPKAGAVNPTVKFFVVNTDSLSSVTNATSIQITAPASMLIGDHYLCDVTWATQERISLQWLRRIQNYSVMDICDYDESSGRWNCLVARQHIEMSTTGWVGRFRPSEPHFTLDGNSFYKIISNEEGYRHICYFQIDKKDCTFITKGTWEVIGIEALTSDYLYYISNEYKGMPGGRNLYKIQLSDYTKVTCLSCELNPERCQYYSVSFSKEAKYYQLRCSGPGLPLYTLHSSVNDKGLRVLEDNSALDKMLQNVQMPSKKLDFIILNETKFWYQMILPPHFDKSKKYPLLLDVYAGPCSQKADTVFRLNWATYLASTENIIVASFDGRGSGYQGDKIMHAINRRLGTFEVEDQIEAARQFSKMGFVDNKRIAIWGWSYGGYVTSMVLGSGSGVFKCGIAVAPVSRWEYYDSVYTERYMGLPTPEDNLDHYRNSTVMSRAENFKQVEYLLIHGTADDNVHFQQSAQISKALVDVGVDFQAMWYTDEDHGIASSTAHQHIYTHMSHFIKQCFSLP

[1] = Inhibition of PREP (unknown origin) using fluorogenic substrate by spectrometric assay; parameters: species or system Homo sapiens

Compound | Activity (CCRF-CEM) | Activity (HepG2) | Activity (HeLa) | Activity (HL-60) | IC50 (Dipeptidyl peptidase 4) | IC50 [1]
CNC(=O)CNC(=O)C(=O)[C@@H]1CCCN1C(=O)CNC(=O)c1ccnc2ccccc12 | inactive | inactive | inactive | inactive | – | –
O=CCNC(=O)CNC(=O)C(=O)[C@@H]1CCCN1C(=O)CNC(=O)c1ccnc2ccccc12 | inactive | inactive | inactive | inactive | – | –
COC(=O)[C@H](CCC(N)=O)NC(=O)CNC(=O)C(=O)[C@@H]1CCCN1C(=O)CNC(=O)c1ccnc2ccccc12 | inactive | inactive | inactive | inactive | – | –
CC(C)NC(=O)CNC(=O)C(=O)[C@@H]1CCCN1C(=O)CNC(=O)c1ccnc2ccccc12 | inactive | inactive | inactive | inactive | – | –
COC(=O)[C@H](CO)NC(=O)CNC(=O)C(=O)[C@@H]1CCCN1C(=O)CNC(=O)c1ccnc2ccccc12 | inactive | inactive | inactive | inactive | – | –
O=C(NC12CC3CC(CC(C3)C1)C2)C(=O)[C@@H]1CCCN1C(=O)CNC(=O)c1ccnc2ccccc12 | inactive | inactive | inactive | inactive | – | –
COC(=O)[C@H](CCCCN)NC(=O)CNC(=O)C(=O)[C@@H]1CCCN1C(=O)CNC(=O)c1ccnc2ccccc12 | inactive | inactive | inactive | inactive | – | –
O=C(NCC(=O)N1CCOCC1)C(=O)[C@@H]1CCCN1C(=O)CNC(=O)c1ccnc2ccccc12 | inactive | inactive | inactive | inactive | > 4000 nM | 0.49 nM
O=C(CNC(=O)C(=O)[C@@H]1CCCN1C(=O)CNC(=O)c1ccnc2ccccc12)NCc1ccccc1 | inactive | inactive | inactive | inactive | – | –
COC(=O)[C@H](CCCCNC(=O)OCc1ccccc1)NC(=O)CNC(=O)C(=O)[C@@H]1CCCN1C(=O)CNC(=O)c1ccnc2ccccc12 | inactive | inactive | inactive | inactive | > 4000 nM | 0.29 nM
CCCCCNC(=O)C(=O)[C@@H]1CCCN1C(=O)CNC(=O)c1ccnc2ccccc12 | inactive | inactive | inactive | inactive | – | 0.4 nM
N#C[C@@H]1CCCN1C(=O)CNC(=O)c1ccnc2ccccc12 | – | – | – | – | > 4000 nM | 320 nM
CN(C)C(=O)CNC(=O)C(=O)[C@@H]1CCCN1C(=O)CNC(=O)c1ccnc2ccccc12 | inactive | inactive | inactive | inactive | – | –
COc1cccc(CNC(=O)C(=O)[C@@H]2CCCN2C(=O)CNC(=O)c2ccnc3ccccc23)c1 | inactive | inactive | inactive | inactive | – | –
O=C(NC1CC1)C(=O)[C@@H]1CCCN1C(=O)CNC(=O)c1ccnc2ccccc12 | inactive | inactive | inactive | inactive | – | –
O=C(NCC(=O)N1CCCC1)C(=O)[C@@H]1CCCN1C(=O)CNC(=O)c1ccnc2ccccc12 | inactive | inactive | inactive | inactive | – | –
CC(C)(C)CNC(=O)C(=O)[C@@H]1CCCN1C(=O)CNC(=O)c1ccnc2ccccc12 | inactive | inactive | inactive | inactive | – | –
O=C(CNC(=O)C(=O)[C@@H]1CCCN1C(=O)CNC(=O)c1ccnc2ccccc12)NC1CC1 | inactive | inactive | inactive | inactive | – | –
COC(=O)CNC(=O)CNC(=O)C(=O)[C@@H]1CCCN1C(=O)CNC(=O)c1ccnc2ccccc12 | inactive | inactive | inactive | inactive | – | –
Cc1ccc(CNC(=O)C(=O)[C@@H]2CCCN2C(=O)CNC(=O)c2ccnc3ccccc23)c(C)c1 | inactive | inactive | inactive | inactive | > 4000 nM | 0.66 nM
CCOC(=O)CNC(=O)C(=O)[C@@H]1CCCN1C(=O)CNC(=O)c1ccnc2ccccc12 | inactive | inactive | inactive | inactive | – | –

Compound | Activity (CCRF-CEM) | Activity (HepG2) | Activity (HeLa) | Activity (HL-60) | IC50 (Dipeptidyl peptidase 4) | IC50 [1]
CCCCCCNC(=O)CNC(=O)C(=O)[C@@H]1CCCN1C(=O)CNC(=O)c1ccnc2ccccc12 | inactive | inactive | inactive | inactive | – | –
COC(=O)[C@H](CC(=O)OCc1ccccc1)NC(=O)CNC(=O)C(=O)[C@@H]1CCCN1C(=O)CNC(=O)c1ccnc2ccccc12 | inactive | inactive | inactive | inactive | – | –
COC(=O)C(C)NC(=O)C(=O)[C@@H]1CCCN1C(=O)CNC(=O)c1ccnc2ccccc12 (mixture of isomers) | inactive | inactive | inactive | inactive | – | –
CC(C)(C)NC(=O)CNC(=O)C(=O)[C@@H]1CCCN1C(=O)CNC(=O)c1ccnc2ccccc12 | inactive | inactive | inactive | inactive | > 4000 nM | 0.73 nM
COc1ccc(CNC(=O)CNC(=O)C(=O)[C@@H]2CCCN2C(=O)CNC(=O)c2ccnc3ccccc23)cc1OC | inactive | inactive | inactive | inactive | – | –
COC(=O)[C@H](CCC(=O)O)NC(=O)CNC(=O)C(=O)[C@@H]1CCCN1C(=O)CNC(=O)c1ccnc2ccccc12 | inactive | inactive | inactive | inactive | > 4000 nM | 1.3 nM
CC(C)(C)OC(=O)CNC(=O)C(=O)[C@@H]1CCCN1C(=O)CNC(=O)c1ccnc2ccccc12 | inactive | inactive | inactive | inactive | > 3000 nM | 0.53 nM
COC(=O)c1ccc(NC(=O)C(=O)[C@@H]2CCCN2C(=O)CNC(=O)c2ccnc3ccccc23)cc1 | inactive | inactive | inactive | inactive | – | –
O=C(NC1CCCCC1)C(=O)[C@@H]1CCCN1C(=O)CNC(=O)c1ccnc2ccccc12 | inactive | inactive | inactive | inactive | – | –
COc1ccc(NC(=O)C(=O)[C@@H]2CCCN2C(=O)CNC(=O)c2ccnc3ccccc23)cc1 | inactive | inactive | inactive | inactive | – | –
COC(=O)[C@H](CCC(=O)NCc1ccccc1)NC(=O)CNC(=O)C(=O)[C@@H]1CCCN1C(=O)CNC(=O)c1ccnc2ccccc12 | inactive | inactive | inactive | inactive | – | –
COC(=O)CNC(=O)C(=O)[C@@H]1CCCN1C(=O)CNC(=O)c1ccnc2ccccc12 | inactive | inactive | inactive | inactive | – | –
O=C(NCCc1ccccc1)C(=O)[C@@H]1CCCN1C(=O)CNC(=O)c1ccnc2ccccc12 | inactive | inactive | inactive | inactive | – | –
N#C[C@@H]1CC(F)(F)CN1C(=O)CNC(=O)c1ccnc2ccccc12 | – | – | – | – | – | 310 nM
O=C(NCc1ccc(F)cc1)C(=O)[C@@H]1CCCN1C(=O)CNC(=O)c1ccnc2ccccc12 | inactive | inactive | inactive | inactive | > 3000 nM | 0.26 nM
COC(=O)C(NC(=O)C(=O)[C@@H]1CCCN1C(=O)CNC(=O)c1ccnc2ccccc12)C(C)C (some centres undefined) | inactive | inactive | inactive | inactive | – | –
COC(=O)[C@H](CC(C)C)NC(=O)CNC(=O)C(=O)[C@@H]1CCCN1C(=O)CNC(=O)c1ccnc2ccccc12 | inactive | inactive | inactive | inactive | – | –
COc1ccc(CNC(=O)C(=O)[C@@H]2CCCN2C(=O)CNC(=O)c2ccnc3ccccc23)cc1 | inactive | inactive | inactive | inactive | – | –
O=C(NC(c1ccccc1)c1ccccc1)C(=O)[C@@H]1CCCN1C(=O)CNC(=O)c1ccnc2ccccc12 | inactive | inactive | inactive | inactive | – | –
CC(C)NC(=O)C(=O)[C@@H]1CCCN1C(=O)CNC(=O)c1ccnc2ccccc12 | inactive | inactive | inactive | inactive | – | –
